Literature values as cited in patent publication US20090297625A1, “AGENT FOR TREATING EYE DISEASES” (OTKRYTOE AKTSIONERNOE OBSCHESTVO ZAVOD, priority 2006, published 2009).

Settings: administration of lutein as an additive

CC1=C[C@H](O)CC(C)(C)[C@H]1/C=C/C(C)=C/C=C/C(C)=C/C=C/C=C(C)/C=C/C=C(C)/C=C/C1=C(C)C[C@@H](O)CC1(C)C [lutein]
absorption and storage in the macula lutea: well absorbed and stored in the macula lutea
